“And” between values parts separate entries of the source, which are not always exact repeats. Identical values can stand only once. Inconclusive results and toxic doses are left out. Cut-off read from the data, not from the text of the source: active = T/C of 150% or more; inactive = T/C below 125%.
Tested on: L1210 leukemia ip in BDF1 mice, survival T/C
Assay: NCI In Vivo Anticancer Drug Screen. Data for tumor model L1210 Leukemia (intraperitoneal) in B6D2F1 (BDF1) mice
Conditions: endpoint: mean survival time, higher = longer survival
Procedure, shortened: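 Each compound was tested against a transplantable tumor grown in mice. The endpoint was survival, with treated animals benchmarked against vehicle controls as a simple ratio.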

[1] = dose: 100.0 mg/kg/injection, schedule: Q04DX003 (ip), vehicle: saline with Tween-80
[2] = dose: 200.0 mg/kg/injection, schedule: Q04DX003 (ip), vehicle: saline with Tween-80
[3] = dose: 400.0 mg/kg/injection, schedule: Q04DX003 (ip), vehicle: saline with Tween-80
[4] = dose: 100.0 mg/kg/injection, schedule: Q01DX001 (ip), vehicle: carboxymethylcellulose (CMC)
[5] = dose: 200.0 mg/kg/injection, schedule: Q01DX001 (ip), vehicle: carboxymethylcellulose (CMC)
[6] = dose: 100.0 mg/kg/injection, schedule: Q04DX002 (ip), vehicle: Klucel (hydroxypropylcellulose) (HPC)
[7] = dose: 200.0 mg/kg/injection, schedule: Q04DX002 (ip), vehicle: Klucel (hydroxypropylcellulose) (HPC)
[8] = dose: 400.0 mg/kg/injection, schedule: Q04DX002 (ip), vehicle: Klucel (hydroxypropylcellulose) (HPC)
[9] = dose: 100.0 mg/kg/injection, schedule: Q01DX009 (ip), vehicle: saline
[10] = dose: 200.0 mg/kg/injection, schedule: Q01DX009 (ip), vehicle: saline
[11] = dose: 400.0 mg/kg/injection, schedule: Q01DX009 (ip), vehicle: saline
[12] = dose: 100.0 mg/kg/injection, schedule: Q01DX001 (ip), vehicle: saline
[13] = dose: 200.0 mg/kg/injection, schedule: Q01DX001 (ip), vehicle: saline
[14] = dose: 400.0 mg/kg/injection, schedule: Q01DX001 (ip), vehicle: saline
[15] = dose: 100.0 mg/kg/injection, schedule: Q04DX003 (ip), vehicle: saline
[16] = dose: 200.0 mg/kg/injection, schedule: Q04DX003 (ip), vehicle: saline

Measured: T/C

COc1cc(CC2Cc3cccc(=O)c(O)c3C(=O)O2)cc(OC)c1OC (stereo unspecified)
inactive: [1] 90 % of control | [2] 95 % of control | [3] 92 % of control

Cn1c(=O)c(=O)n(C)c2cc(Cl)c(Cl)cc21
inactive: [4] 94 % of control | [5] 105 % of control

CC(C)Oc1ccc2ccccc2c1
inactive: dose: 12.5 mg/kg/injection, schedule: Q04DX003 (ip), vehicle: acetone 94 % of control | dose: 25.0 mg/kg/injection, schedule: Q04DX003 (ip), vehicle: acetone 93 % of control | dose: 50.0 mg/kg/injection, schedule: Q04DX003 (ip), vehicle: acetone 93 % of control

CN(C)C(=N)CSS(=O)(=O)O
inactive: [6] 90 % of control | [7] 101 % of control

CC(=O)OCCOc1ccc(C(C)(C)C)cc1
inactive: dose: 50.0 mg/kg/injection, schedule: Q01DX009 (ip), vehicle: Klucel (hydroxypropylcellulose) (HPC) 100 % of control | dose: 100.0 mg/kg/injection, schedule: Q01DX009 (ip), vehicle: Klucel (hydroxypropylcellulose) (HPC) 86 % of control and 92 % of control | [6] 98 % of control | dose: 200.0 mg/kg/injection, schedule: Q01DX009 (ip), vehicle: Klucel (hydroxypropylcellulose) (HPC) 111 % of control | [7] 102 % of control | dose: 225.0 mg/kg/injection, schedule: Q01DX Z (ip), vehicle: carboxymethylcellulose (CMC) 95 % of control | [8] 115 % of control | dose: 450.0 mg/kg/injection, schedule: Q01DX Z (ip), vehicle: carboxymethylcellulose (CMC) 102 % of control

Cc1cc(C)nc(SCC(=O)O)n1
inactive: dose: 50.0 mg/kg/injection, schedule: Q01DX001 (ip), vehicle: carboxymethylcellulose (CMC) 89 % of control | [4] 105 % of control | [5] 96 % of control | dose: 400.0 mg/kg/injection, schedule: Q01DX001 (ip), vehicle: carboxymethylcellulose (CMC) 105 % of control

COc1ccc(CC(=O)NCCc2ccc3cc(OC)c(OC)cc3c2)cc1OC
inactive: [9] 90 % of control | [10] 86 % of control | [11] 88 % of control

CN(C)/C=N\c1ncnc2c1ccn2C1OC(CO)C(O)C1O (stereo unspecified)
inactive: dose: 1.56 mg/kg/injection, schedule: Q01DX005 (ip), vehicle: saline 104 % of control | dose: 1.56 mg/kg/injection, schedule: Q01DX009 (ip), vehicle: saline 109 % of control | dose: 3.12 mg/kg/injection, schedule: Q01DX005 (ip), vehicle: saline 116 % of control | dose: 3.12 mg/kg/injection, schedule: Q01DX009 (ip), vehicle: saline 114 % of control | dose: 6.25 mg/kg/injection, schedule: Q01DX005 (ip), vehicle: saline 93 % of control | dose: 6.25 mg/kg/injection, schedule: Q01DX009 (ip), vehicle: saline 88 % of control

CN=C(N)c1ccc(C(=O)OCCOC)cc1
inactive: [12] 96 % of control | [13] 107 % of control | [14] 105 % of control

O=C1NC(=O)C2(CCN(CC3COc4ccccc4O3)CC2)C(=O)N1 (stereo unspecified)
inactive: dose: 100.0 mg/kg/injection, schedule: Q04DX003 (ip), vehicle: Klucel (hydroxypropylcellulose) (HPC) 97 % of control | dose: 200.0 mg/kg/injection, schedule: Q04DX003 (ip), vehicle: Klucel (hydroxypropylcellulose) (HPC) 103 % of control | dose: 400.0 mg/kg/injection, schedule: Q04DX003 (ip), vehicle: Klucel (hydroxypropylcellulose) (HPC) 109 % of control

COc1cc(C=O)ccc1OC(=O)Nc1cccc(Cl)c1Cl
inactive: dose: 100.0 mg/kg/injection, schedule: Q01DX009 (ip), vehicle: saline with Tween-80 90 % of control | dose: 200.0 mg/kg/injection, schedule: Q01DX009 (ip), vehicle: saline with Tween-80 90 % of control | dose: 400.0 mg/kg/injection, schedule: Q01DX009 (ip), vehicle: saline with Tween-80 92 % of control

CCS[S+](CC)CC
inactive: dose: 6.25 mg/kg/injection, schedule: Q01DX009 (ip), vehicle: saline with Tween-80 98 % of control | dose: 12.5 mg/kg/injection, schedule: Q01DX009 (ip), vehicle: saline with Tween-80 102 % of control

CC12CCc3occc3C1CCC13CC(CO)C(O)(CCC12)C3 (stereo unspecified)
inactive: [15] 94 % of control | [16] 93 % of control

COc1cc(/C=N\Nc2ccccc2)ccc1OC(=O)c1ccccc1
inactive: dose: 100.0 mg/kg/injection, schedule: Q04DX002 (ip), vehicle: saline with Tween-80 91 % of control | dose: 200.0 mg/kg/injection, schedule: Q04DX002 (ip), vehicle: saline with Tween-80 91 % of control | dose: 400.0 mg/kg/injection, schedule: Q04DX002 (ip), vehicle: saline with Tween-80 98 % of control

Cc1cccc(NC(=S)N2CCOCC2)c1
inactive: dose: 87.5 mg/kg/injection, schedule: Q01DX009 (ip), vehicle: Klucel (hydroxypropylcellulose) (HPC) 110 % of control | dose: 175.0 mg/kg/injection, schedule: Q01DX009 (ip), vehicle: Klucel (hydroxypropylcellulose) (HPC) 100 % of control | dose: 350.0 mg/kg/injection, schedule: Q01DX009 (ip), vehicle: Klucel (hydroxypropylcellulose) (HPC) 108 % of control

O=C(O)COc1cccc2ccc(Cl)cc12
inactive: [6] 101 % of control | [7] 90 % of control | [8] 96 % of control

CCCCNC(=S)C(CC)CCCC (stereo unspecified)
inactive: dose: 100.0 mg/kg/injection, schedule: Q04DX002 (sc), vehicle: olive oil, sesame oil, peanut oil 99 % of control | dose: 200.0 mg/kg/injection, schedule: Q04DX002 (sc), vehicle: olive oil, sesame oil, peanut oil 99 % of control | dose: 400.0 mg/kg/injection, schedule: Q04DX002 (sc), vehicle: olive oil, sesame oil, peanut oil 99 % of control

CC1=CC(=O)CC(C)C1 (stereo unspecified)
inactive: [12] 111 % of control | [13] 94 % of control | [14] 103 % of control

Cc1ncc(CCl)c(CCl)c1O
inactive: dose: 50.0 mg/kg/injection, schedule: Q01DX009 (ip), vehicle: saline 95 % of control | [9] 92 % of control | [15] 98 % of control | [10] 97 % of control | [16] 97 % of control

CC(=O)Nc1ccc2[nH]c(C)cc(=O)c2c1
inactive: dose: 100.0 mg/kg/injection, schedule: Q01DX009 (ip), vehicle: water 98 % of control | dose: 100.0 mg/kg/injection, schedule: Q04DX003 (ip), vehicle: water 110 % of control | dose: 200.0 mg/kg/injection, schedule: Q01DX009 (ip), vehicle: water 96 % of control | dose: 200.0 mg/kg/injection, schedule: Q04DX003 (ip), vehicle: water 110 % of control | dose: 400.0 mg/kg/injection, schedule: Q01DX009 (ip), vehicle: water 100 % of control | dose: 400.0 mg/kg/injection, schedule: Q04DX003 (ip), vehicle: water 107 % of control

CCOC(=O)C(O)(CC)CC
inactive: [9] 96 % of control | [15] 93 % of control | [10] 101 % of control | [16] 93 % of control | [11] 102 % of control | dose: 400.0 mg/kg/injection, schedule: Q04DX003 (ip), vehicle: saline 95 % of control

CCN(CC)CCn1c(CC23CC4CC(CC(C4)C2)C3)nc2cc([N+](=O)[O-])ccc21
inactive: dose: 100.0 mg/kg/injection, schedule: Q01DX001 (ip), vehicle: Klucel (hydroxypropylcellulose) (HPC) 90 % of control | dose: 200.0 mg/kg/injection, schedule: Q01DX001 (ip), vehicle: Klucel (hydroxypropylcellulose) (HPC) 98 % of control

CC1(C)CCC2(CC1)CC(=O)OC2=O
inactive: [1] 95 % of control | [2] 97 % of control | [3] 98 % of control

— PubChem BioAssay AID248 (DTP/NCI, 2004)
